What was measured:
[1] = system: BRCA1-mutated MDA-MB-436 cells; test: Anti-proliferation experiment on MDA-MB-436 CTG cells; type: cell-based, human; conditions: 7 days incubation, CellTiter-Glo
Procedure: Experimental Example 2: Anti-Proliferation Experiment on MDA-MB-436 CTG Cells
Experimental materials: test compounds; RPMI-1640 medium; fetal bovine serum; penicillin/streptomycin antibiotic; MDA-MB-436 cell line; Envision multi-marker analyzer (PerkinElmer).
MDA-MB-436 cells were seeded in a white 96-well plate by adding 80 μL of cell suspension (containing 3000 MDA-MB-436 cells) to each well. The cell plate was incubated in a CO2 incubator overnight.
Test compounds were serially 5-fold diluted to the 8th concentration with a multichannel pipette, i.e. from 2 mM to 26 nM, and a duplicate well experiment was performed. 78 μL of medium was added to a intermediate plate, 2 μL of each of serially diluted compounds was transferred to corresponding wells of the intermediate plate, and after mixing, the mixture was transferred to the cell plate at 20 μL per well. The cell plate was incubated in a CO2 incubator for 7 days. Another cell plate was provided for reading signal values on the day of compound addition and these signal values were used as Max values in data analysis. Promega CellTiter-Glo was added to this cell plate at 25 μL per well and the luminescence signals were stabilized by incubation for 10 min at room temperature. Readings were taken using a PerkinElmer Envision multi-marker analyzer.
Promega CellTiter-Glo was added to the cell plate at 25 μL per well and the luminescence signals were stabilized by incubation for 10 min at room temperature. Readings were taken using a PerkinElmer Envision multi-marker analyzer.
2. Data analysis: the original data was converted to inhibition using the equation (sample−Min)/(Max−Min)×100%, and the IC50 value was then curve fitted using four parameters (obtained from the “log(inhibitor) vs. response-variable slope” model in GraphPad Prism). Table 2 provides the inhibitory activity of the compounds disclosed herein against MDA-MB-436 cell proliferation.

[2] = system: human breast cancer MDA-MB-436 cells; test: In vivo pharmacodynamic study, subcutaneous xenograft tumor model of MDA-MB-436 cells; parameters: species or system BALB/c nude mouse; conditions: for TGI: day 27; for Tumor volume (day 27): mean ± SEM
Description: Experimental Example 9: In Vivo Pharmacodynamic Study of Compounds in Subcutaneous Xenograft Tumor BALB/c Nude Mouse Model of Human Breast Cancer MDA-MB-436 Cells
Experimental objective: to study the efficacy in vivo of the test compound in subcutaneous xenograft tumor BALB/c nude mouse model of human breast cancer MDA-MB-436 cells.
Experimental materials: week age and body weight: female BALB/c nude mice, 6-8 weeks old, 18-22 g of body weight. The experiment started after 3-7-days of adaptive feeding. The animal information card of each cage provides the following information about the animals: number, sex, strain, receiving date, administration regime, experiment number, group and starting date of the experiment. All the cages, padding and drinking water were sterilized before use. The cages, feed and drinking water were changed twice a week. The experimental animals were identified with ear tags. Test samples: Example 24_A and Example 25_A. All the test samples were prepared with 10% DMSO+90% (20% HP-β-CD) as vehicle, and the blank control group was administered with the vehicle alone.
1. Cell culturing. Human breast cancer MDA-MB-436 cells (ATCC, Manassas, Va., catalog No.: HTB-130) were cultured in an RPMI-1640 culture medium containing 10% fetal bovine serum and 1% Anti-anti through in vitro monolayer culture in an incubator at 37° C./5% CO2. The cells were digested with trypsin-EDTA twice a week for passaging as per conventional practice. At a cell saturation of 80%-90% and a required number, the cells were collected, counted and inoculated. 2. Tumor cell inoculation (tumor inoculation). 0.2 mL (1×10^7 cells) of MDA-MB-436 cells (along with matrigel in a volume ratio of 1:1) was subcutaneously inoculated on the right back of each mouse, and the mice were randomly grouped when the average tumor volume was 318 mm^3. 3. Daily observation of experimental animals: animals were monitored daily for health and death, and routine examinations include observation of the effect of tumor growth and drug treatment on the daily performance of the animals, such as behavioral activities, food and water intake, weight changes, appearance, or other abnormal conditions. 4. Tumor measurements and experimental indices: the experimental indices were to investigate whether the tumor growth was inhibited, the tumor growth was delayed or the tumor was cured. Tumor diameters were measured twice weekly using a vernier caliper. The tumor volume was calculated using the following formula: V=0.5a×b^2, where a and b represent the long diameter and short diameter of the tumor, respectively. The anti-tumor therapeutic effect of the compound was evaluated by TGI (%) or relative tumor proliferation rate T/C (%). TGI (%) refers to the rate of tumor growth inhibition. Calculation of TGI (%): TGI (%)=[(1−(average tumor volume at the end of administration in a treatment group−average tumor volume at the start of administration of the treatment group))/(average tumor volume at the end of treatment of the solvent control group−average tumor volume at the start of treatment of the solvent control group)]×100%. The calculation formula for relative tumor proliferation rate T/C (%) was as follows: T/C (%)=TRTV/CRTV×100% (TRTV: RTV of treatment group; CRTV: RTV of negative control group). Relative tumor volume (RTV) was calculated based on the results of tumor measurement. The calculation formula was: RTV=Vt/V0, wherein V0 was the average tumor volume measured at the time of grouping and administration (i.e., d0), Vt was the average tumor volume at a certain measurement, and the data of TRTV and CRTV used were obtained on the same day. 5. Statistical analysis: including mean and standard error of mean (SEM) of tumor volume at each time point for each group. […] The experimental data were analyzed using a one-way ANOVA method and a Games-Howell method. All data analysis was performed with SPSS 17.0. p<0.05 was defined as a significant difference.

[3] = Homo sapiens, MDA-MB-436, 168 h

O=C1NOCc2c(-c3ccc(C4CCCN4)cc3)[nH]c3cc(F)cc1c23 (single isomer, unassigned) [Example 24_A]
IC50 [1]: 9.6 nM

CC1(c2ccc(-c3[nH]c4cc(F)cc5c4c3CONC5=O)cc2F)CCCN1 (single isomer, unassigned) [Example 26_A]
IC50 [1]: 8.4 nM

CC1(c2ccc(-c3[nH]c4cccc5c4c3CONC5=O)cc2)CCCN1 (centres unmarked) [Example 6_A]
IC50 [1, 3]: 16.9 nM

O=C1NOCc2c(-c3ccc(C4CCCN4)c(F)c3)[nH]c3cccc1c23 (centres unmarked) [Example 11_A]
IC50 [1, 3]: 70.2 nM

CC1(c2ccc(-c3[nH]c4cc(F)cc5c4c3CONC5=O)cc2)CCCN1 (centres unmarked) [Example 25_A]
IC50 [1, 3]: 12.3 nM
TGI ([2]; 12.5 mg/kg PO QD × 28 days): 95.34%
Tumor volume (day 27) ([2]; 12.5 mg/kg PO QD × 28 days): 377 ± 149 mm^3
TGI ([2]; 25 mg/kg PO QD × 28 days): 114.69%
Tumor volume (day 27) ([2]; 25 mg/kg PO QD × 28 days): 132 ± 32 mm^3
TGI ([2]; 50 mg/kg PO QD × 28 days): 117.86%
Tumor volume (day 27) ([2]; 50 mg/kg PO QD × 28 days): 91 ± 14 mm^3
